{"source": "paper PMC7960226", "about": "(Science (New York, N.Y.), 2020)", "key": {"NR1I2": {"molecular_target": "NR1I2 (Homo sapiens, UniProt O75469)", "assay": "safety panel assay, NR1I2", "type": "binding", "conditions": "Table 2, NR1I2; accurate to ±20%"}, "[1]": {"system": "BioMAP Diversity PLUS panel", "assay": "BioMAP Diversity PLUS panel of cell-based systems"}, "ABCB11": {"molecular_target": "ABCB11 (Homo sapiens, UniProt O95342)", "assay": "transporter inhibition, ABCB11", "type": "biochemical", "conditions": "Table 2, ABCB11; accurate to ±20%"}, "SLC18A2": {"molecular_target": "SLC18A2 (Homo sapiens, UniProt Q05940)", "sequence (Q05940 whole entry, species assumed)": "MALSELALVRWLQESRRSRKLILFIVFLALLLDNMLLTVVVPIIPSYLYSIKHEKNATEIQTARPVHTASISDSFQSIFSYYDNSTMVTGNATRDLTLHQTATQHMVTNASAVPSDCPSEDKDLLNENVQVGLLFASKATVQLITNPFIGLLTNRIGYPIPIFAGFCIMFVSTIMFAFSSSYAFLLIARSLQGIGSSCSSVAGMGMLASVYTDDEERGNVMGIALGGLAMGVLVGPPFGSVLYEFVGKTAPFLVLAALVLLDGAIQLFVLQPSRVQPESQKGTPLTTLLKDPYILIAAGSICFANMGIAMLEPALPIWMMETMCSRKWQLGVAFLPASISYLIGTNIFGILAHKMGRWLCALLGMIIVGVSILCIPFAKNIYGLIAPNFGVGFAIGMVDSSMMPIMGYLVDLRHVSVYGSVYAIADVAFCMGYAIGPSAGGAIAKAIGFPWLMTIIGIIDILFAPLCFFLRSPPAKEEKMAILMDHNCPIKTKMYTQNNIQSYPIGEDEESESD", "assay": "transporter inhibition, SLC18A2", "type": "biochemical", "conditions": "Table 2, SLC18A2; accurate to ±20%"}, "ADRA1A": {"molecular_target": "T1, ADRA1A (Homo sapiens, UniProt P35348)", "T1 sequence (P35348 1-466)": "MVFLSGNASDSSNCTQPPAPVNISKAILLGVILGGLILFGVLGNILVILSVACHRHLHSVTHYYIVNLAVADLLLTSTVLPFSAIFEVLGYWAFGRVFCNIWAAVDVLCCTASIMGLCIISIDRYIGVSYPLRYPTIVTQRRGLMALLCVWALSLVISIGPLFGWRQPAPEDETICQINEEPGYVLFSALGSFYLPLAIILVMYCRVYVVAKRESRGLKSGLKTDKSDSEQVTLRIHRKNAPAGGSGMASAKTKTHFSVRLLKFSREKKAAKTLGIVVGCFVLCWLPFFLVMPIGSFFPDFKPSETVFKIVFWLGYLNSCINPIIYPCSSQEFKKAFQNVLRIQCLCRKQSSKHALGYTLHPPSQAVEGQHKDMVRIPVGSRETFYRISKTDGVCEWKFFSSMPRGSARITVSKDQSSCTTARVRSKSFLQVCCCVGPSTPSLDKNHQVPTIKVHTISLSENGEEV", "conditions": "Table 2, ADRA1A; accurate to ±20%"}, "PRG": {"molecular_target": "PRG (Homo sapiens, UniProt P06401)", "sequence (P06401 whole entry)": "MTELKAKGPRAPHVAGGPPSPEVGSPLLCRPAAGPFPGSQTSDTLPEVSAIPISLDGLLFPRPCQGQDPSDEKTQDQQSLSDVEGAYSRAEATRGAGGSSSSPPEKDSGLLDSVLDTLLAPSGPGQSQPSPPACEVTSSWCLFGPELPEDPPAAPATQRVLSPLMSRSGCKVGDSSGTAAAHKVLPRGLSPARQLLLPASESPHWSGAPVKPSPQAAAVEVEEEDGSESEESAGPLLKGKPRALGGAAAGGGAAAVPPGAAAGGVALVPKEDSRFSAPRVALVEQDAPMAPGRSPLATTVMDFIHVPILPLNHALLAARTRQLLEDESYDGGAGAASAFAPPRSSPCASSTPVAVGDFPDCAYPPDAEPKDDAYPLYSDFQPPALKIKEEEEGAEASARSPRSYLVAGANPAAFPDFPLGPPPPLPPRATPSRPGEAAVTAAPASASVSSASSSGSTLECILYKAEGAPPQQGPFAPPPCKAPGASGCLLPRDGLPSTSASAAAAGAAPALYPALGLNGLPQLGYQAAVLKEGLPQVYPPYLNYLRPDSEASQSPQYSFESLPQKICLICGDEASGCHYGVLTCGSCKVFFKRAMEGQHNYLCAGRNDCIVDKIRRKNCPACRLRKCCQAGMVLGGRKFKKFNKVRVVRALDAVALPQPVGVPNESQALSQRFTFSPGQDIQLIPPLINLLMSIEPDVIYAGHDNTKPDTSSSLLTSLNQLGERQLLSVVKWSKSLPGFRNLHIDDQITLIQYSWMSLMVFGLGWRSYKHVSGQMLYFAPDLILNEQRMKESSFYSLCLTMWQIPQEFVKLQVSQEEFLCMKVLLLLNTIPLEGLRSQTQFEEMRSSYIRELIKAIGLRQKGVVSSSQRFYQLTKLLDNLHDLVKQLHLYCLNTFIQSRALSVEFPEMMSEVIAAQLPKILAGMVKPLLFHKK", "conditions": "Table 2, PRG; accurate to ±20%"}, "SLCO2B1": {"molecular_target": "T2, SLCO2B1 (Homo sapiens, UniProt O94956)", "T2 sequence (O94956 1-709)": "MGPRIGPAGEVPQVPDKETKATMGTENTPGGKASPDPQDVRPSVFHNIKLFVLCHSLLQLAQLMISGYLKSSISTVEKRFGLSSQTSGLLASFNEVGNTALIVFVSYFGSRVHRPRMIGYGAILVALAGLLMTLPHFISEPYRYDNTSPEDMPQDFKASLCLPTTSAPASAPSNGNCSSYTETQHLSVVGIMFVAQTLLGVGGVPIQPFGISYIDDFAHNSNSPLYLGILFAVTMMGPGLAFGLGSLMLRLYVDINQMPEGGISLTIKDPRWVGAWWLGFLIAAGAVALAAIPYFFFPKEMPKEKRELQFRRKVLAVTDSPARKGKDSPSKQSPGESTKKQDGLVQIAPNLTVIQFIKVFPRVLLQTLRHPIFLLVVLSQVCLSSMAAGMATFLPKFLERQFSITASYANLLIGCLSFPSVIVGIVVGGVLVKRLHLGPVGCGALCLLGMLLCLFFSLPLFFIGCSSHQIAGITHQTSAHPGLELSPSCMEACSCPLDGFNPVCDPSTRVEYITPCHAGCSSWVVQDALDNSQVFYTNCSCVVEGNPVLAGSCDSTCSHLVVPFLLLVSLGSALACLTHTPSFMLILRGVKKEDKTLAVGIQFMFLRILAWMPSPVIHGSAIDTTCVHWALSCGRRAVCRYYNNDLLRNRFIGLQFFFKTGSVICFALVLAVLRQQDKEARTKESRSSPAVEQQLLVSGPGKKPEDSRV", "assay": "in vitro transporter inhibition, SLCO2B1", "type": "biochemical"}, "DRD3": {"molecular_target": "DRD3 (Homo sapiens, UniProt P35462)", "conditions": "Table 2, DRD3; accurate to ±20%"}, "ADORA3": {"molecular_target": "ADORA3 (Homo sapiens, UniProt P0DMS8)", "sequence (P0DMS8 whole entry, species assumed)": "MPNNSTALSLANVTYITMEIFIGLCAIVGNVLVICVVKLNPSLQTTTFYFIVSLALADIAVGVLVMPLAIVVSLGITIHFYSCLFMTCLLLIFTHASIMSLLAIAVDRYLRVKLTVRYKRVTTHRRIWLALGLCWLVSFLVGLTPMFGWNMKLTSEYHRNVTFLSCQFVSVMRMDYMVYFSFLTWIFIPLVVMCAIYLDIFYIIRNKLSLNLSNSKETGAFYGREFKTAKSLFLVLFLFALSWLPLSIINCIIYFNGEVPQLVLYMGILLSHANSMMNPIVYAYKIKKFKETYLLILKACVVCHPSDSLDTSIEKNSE", "conditions": "Table 2, ADORA3; accurate to ±20%"}, "CHRM1": {"molecular_target": "T3, CHRM1 (Homo sapiens, UniProt P11229)", "T3 sequence (P11229 1-460)": "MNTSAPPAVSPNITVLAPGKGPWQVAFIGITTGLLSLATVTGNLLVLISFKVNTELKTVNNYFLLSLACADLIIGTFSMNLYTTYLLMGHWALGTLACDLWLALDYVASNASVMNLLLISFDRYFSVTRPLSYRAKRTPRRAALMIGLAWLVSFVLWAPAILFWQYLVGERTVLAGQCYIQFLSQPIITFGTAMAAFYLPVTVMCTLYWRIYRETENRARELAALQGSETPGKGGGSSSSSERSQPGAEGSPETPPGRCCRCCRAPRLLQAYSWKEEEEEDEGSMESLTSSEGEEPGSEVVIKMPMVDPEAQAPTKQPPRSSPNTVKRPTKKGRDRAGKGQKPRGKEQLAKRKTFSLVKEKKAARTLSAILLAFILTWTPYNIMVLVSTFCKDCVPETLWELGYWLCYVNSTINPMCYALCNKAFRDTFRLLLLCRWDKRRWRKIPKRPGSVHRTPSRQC"}, "SLCO1B1": {"molecular_target": "T4, SLCO1B1 (Homo sapiens, UniProt Q9Y6L6)", "T4 sequence (Q9Y6L6 1-691)": "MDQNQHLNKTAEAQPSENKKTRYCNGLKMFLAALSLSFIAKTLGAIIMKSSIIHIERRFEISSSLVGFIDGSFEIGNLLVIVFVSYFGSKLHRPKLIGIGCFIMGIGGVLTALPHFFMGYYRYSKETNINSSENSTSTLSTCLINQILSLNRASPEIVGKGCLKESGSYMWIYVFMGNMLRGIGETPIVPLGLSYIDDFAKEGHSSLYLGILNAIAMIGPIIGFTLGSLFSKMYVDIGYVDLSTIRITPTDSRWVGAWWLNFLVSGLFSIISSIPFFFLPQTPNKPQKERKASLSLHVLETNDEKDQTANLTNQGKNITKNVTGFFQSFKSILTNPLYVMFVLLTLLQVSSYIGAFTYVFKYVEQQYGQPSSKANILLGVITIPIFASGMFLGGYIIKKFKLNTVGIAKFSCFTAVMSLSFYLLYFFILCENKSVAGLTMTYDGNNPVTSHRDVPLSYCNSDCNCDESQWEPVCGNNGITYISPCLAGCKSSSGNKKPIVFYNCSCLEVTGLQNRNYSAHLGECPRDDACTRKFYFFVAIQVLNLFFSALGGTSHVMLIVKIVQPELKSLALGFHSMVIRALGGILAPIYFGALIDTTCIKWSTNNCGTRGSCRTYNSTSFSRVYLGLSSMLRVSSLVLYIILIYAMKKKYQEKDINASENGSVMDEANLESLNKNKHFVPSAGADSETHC", "assay": "in vitro transporter assay, SLCO1B1", "conditions": "Table 1, predicted target SLCO1B1"}, "PDE4D": {"molecular_target": "PDE4D (Homo sapiens, UniProt Q08499)", "sequence (Q08499 whole entry)": "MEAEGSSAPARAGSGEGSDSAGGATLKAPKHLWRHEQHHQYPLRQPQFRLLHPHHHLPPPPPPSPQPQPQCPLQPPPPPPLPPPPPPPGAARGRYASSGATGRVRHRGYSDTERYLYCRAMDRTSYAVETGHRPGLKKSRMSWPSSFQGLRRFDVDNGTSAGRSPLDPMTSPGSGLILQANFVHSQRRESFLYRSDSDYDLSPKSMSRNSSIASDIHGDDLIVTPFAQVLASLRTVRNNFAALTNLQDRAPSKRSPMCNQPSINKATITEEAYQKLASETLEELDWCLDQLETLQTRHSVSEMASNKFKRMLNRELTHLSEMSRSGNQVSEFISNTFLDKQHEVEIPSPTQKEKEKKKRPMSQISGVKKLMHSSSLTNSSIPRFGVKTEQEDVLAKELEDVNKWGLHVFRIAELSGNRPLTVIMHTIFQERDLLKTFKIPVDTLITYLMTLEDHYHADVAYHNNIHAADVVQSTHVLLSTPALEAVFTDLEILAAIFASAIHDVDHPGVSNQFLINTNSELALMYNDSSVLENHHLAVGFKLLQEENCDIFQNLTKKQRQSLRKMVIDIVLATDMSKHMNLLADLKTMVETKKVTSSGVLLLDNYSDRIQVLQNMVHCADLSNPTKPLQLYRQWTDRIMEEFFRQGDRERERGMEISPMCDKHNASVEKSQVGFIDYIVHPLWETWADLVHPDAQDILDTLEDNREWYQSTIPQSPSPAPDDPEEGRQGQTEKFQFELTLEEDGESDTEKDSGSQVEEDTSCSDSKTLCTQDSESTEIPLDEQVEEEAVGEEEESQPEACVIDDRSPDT", "assay": "in vitro assay, PDE4D", "type": "biochemical", "conditions": "Table 2, PDE4D; accurate to ±20%"}, "HTR1A": {"molecular_target": "HTR1A (Homo sapiens, UniProt P08908)", "assay": "safety panel assay, HTR1A", "type": "binding", "conditions": "Table 2, HTR1A; accurate to ±20%"}, "SLC6A2": {"molecular_target": "SLC6A2 (Homo sapiens, UniProt P23975)", "sequence (P23975 whole entry, species assumed)": "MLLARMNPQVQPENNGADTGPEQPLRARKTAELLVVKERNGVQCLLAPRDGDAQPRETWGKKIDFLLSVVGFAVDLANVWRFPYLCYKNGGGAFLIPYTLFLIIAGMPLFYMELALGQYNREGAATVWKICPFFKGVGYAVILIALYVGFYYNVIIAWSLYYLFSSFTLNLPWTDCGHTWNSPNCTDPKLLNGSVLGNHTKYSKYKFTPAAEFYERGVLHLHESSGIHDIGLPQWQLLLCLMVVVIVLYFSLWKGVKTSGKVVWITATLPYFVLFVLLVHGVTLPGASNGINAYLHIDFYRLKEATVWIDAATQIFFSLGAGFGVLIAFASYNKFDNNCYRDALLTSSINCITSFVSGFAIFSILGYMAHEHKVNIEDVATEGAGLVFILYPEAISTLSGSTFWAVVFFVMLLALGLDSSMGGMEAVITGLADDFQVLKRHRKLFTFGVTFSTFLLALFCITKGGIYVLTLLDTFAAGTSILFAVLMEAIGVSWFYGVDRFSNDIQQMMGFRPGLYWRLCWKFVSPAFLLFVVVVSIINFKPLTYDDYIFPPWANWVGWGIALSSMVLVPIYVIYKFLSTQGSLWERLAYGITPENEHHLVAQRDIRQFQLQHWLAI", "conditions": "Table 2, SLC6A2; accurate to ±20%"}, "[2]": {"assay": "Pharmacokinetics in rats after i.v. and oral administration", "conditions": "rat"}, "SCN5A": {"molecular_target": "SCN5A (Homo sapiens, UniProt Q14524)", "conditions": "Table 2, SCN5A; accurate to ±20%"}, "TBXA2R": {"molecular_target": "TBXA2R (Homo sapiens, UniProt P21731)", "sequence (P21731 whole entry, species assumed)": "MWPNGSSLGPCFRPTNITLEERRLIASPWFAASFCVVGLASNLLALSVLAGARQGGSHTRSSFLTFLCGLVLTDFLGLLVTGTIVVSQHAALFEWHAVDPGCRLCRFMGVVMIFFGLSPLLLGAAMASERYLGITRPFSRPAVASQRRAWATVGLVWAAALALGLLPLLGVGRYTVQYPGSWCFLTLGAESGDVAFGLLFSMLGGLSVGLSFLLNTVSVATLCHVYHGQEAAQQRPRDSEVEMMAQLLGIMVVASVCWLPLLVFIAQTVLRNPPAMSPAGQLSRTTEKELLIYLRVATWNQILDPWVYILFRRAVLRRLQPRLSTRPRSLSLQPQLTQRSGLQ", "assay": "safety panel assay, TBXA2R", "type": "binding"}, "[3]": {"assay": "Madin-Darby canine kidney permeability assay", "conditions": "dog, MDCK"}, "SLC6A3": {"molecular_target": "SLC6A3 (Homo sapiens, UniProt Q01959)", "assay": "safety panel assay, SLC6A3", "type": "biochemical", "conditions": "Table 2, SLC6A3; accurate to ±20%"}, "PRMT1": {"molecular_target": "PRMT1 (Homo sapiens, UniProt Q99873)", "sequence (Q99873 whole entry)": "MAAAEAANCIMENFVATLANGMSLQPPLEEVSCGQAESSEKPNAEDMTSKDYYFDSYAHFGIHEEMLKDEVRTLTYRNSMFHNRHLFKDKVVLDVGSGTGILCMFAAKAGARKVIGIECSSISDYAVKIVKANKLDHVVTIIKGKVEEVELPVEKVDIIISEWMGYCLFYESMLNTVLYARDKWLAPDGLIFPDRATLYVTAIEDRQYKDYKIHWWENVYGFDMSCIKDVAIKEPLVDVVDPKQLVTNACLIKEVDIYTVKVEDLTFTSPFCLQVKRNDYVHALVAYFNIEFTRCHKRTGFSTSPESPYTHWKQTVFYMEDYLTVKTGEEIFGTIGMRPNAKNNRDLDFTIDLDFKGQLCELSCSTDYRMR", "conditions": "Table 1, predicted target PRMT1"}, "ACHE": {"molecular_target": "ACHE (Homo sapiens, UniProt P22303)", "conditions": "Table 2, ACHE; accurate to ±20%"}, "PDE3A": {"molecular_target": "PDE3A (Homo sapiens, UniProt Q14432)", "sequence (Q14432 whole entry, species assumed)": "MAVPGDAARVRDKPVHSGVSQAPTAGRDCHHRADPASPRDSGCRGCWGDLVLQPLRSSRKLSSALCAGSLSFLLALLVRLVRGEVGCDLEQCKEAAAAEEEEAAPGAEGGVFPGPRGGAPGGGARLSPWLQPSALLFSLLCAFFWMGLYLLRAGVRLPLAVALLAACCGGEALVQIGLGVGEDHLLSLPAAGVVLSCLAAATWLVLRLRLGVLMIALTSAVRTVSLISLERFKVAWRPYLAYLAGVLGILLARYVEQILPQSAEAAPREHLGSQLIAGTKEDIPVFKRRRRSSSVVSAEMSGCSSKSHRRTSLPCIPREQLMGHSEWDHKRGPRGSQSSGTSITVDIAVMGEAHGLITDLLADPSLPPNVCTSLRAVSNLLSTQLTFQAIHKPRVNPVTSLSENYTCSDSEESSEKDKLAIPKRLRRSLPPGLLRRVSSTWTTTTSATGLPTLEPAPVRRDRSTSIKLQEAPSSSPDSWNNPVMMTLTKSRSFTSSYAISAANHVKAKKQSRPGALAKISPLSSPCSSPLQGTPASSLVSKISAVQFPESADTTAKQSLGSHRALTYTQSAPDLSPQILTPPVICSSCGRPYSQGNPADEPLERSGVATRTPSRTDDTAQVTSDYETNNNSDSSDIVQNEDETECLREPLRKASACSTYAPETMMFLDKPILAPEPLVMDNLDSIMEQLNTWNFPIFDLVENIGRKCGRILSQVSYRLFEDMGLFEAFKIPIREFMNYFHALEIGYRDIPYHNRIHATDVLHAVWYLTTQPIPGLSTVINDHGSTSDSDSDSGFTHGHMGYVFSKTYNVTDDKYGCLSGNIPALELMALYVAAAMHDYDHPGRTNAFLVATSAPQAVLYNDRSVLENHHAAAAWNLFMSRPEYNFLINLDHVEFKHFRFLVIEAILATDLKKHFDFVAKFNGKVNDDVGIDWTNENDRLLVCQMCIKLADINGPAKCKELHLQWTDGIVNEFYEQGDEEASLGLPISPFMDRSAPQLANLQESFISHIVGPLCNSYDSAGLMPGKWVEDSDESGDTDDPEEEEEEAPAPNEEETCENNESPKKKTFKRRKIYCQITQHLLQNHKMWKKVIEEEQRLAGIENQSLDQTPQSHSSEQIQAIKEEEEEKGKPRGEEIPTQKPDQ", "assay": "safety panel assay, PDE3A", "type": "biochemical"}, "[4]": {"conditions": "rat, in vivo, 1 mg/kg"}, "[5]": {"assay": "not given", "remark": "listed apart in the source"}}, "note": "Peptide text beside a SMILES is read from it.", "data": [{"compound": "COC(=O)[C@H](Cc1ccccc1)NC(=O)[C@@H](N)CC(=O)O", "note": "[Aspartame] (HELM PEPTIDE1{D.F.[CO[*:1]]}$$$$V2.0)", "values": [{"measurement": "Ki/IC50 Or EC50", "setting": "NR1I2", "result": 13, "unit": "µM"}, {"measurement": "activity in the BioMAP cell-based systems", "setting": "[1]; 1.1, 3.3, 10, 30 μM", "result": "no measurable activity"}]}, {"compound": "O=C(O)c1ccccc1", "note": "[Benzoic acid]", "values": [{"measurement": "Ki/IC50 Or EC50", "setting": "ABCB11", "result": 260, "unit": "µM"}, {"measurement": "Ki/IC50 Or EC50", "setting": "SLC18A2", "result": 18, "unit": "µM"}]}, {"compound": "CCCCCCCCCCCCOS(=O)(=O)[O-].[Na+]", "note": "[Sodium lauryl sulfate]", "values": [{"measurement": "Ki/IC50 Or EC50", "setting": "ADRA1A", "result": 15, "unit": "µM"}, {"measurement": "Ki/IC50 Or EC50", "setting": "PRG", "result": 15, "unit": "µM"}, {"measurement": "Ki/IC50", "setting": "SLCO2B1; Table 1, predicted target SLCO2B1", "result": 2.8, "unit": "µM"}, {"measurement": "Ki/IC50 Or EC50", "setting": "DRD3", "result": 18, "unit": "µM"}, {"measurement": "Ki/IC50 Or EC50", "setting": "ADORA3", "result": 15, "unit": "µM"}, {"measurement": "Ki/IC50 Or EC50", "setting": "CHRM1; Table 2, CHRM1, accurate to ±20%", "result": 29, "unit": "µM"}, {"measurement": "Ki/IC50", "setting": "SLCO1B1", "result": 2.9, "unit": "µM"}, {"measurement": "Ki/IC50 Or EC50", "setting": "PDE4D", "result": 23, "unit": "µM"}, {"measurement": "Ki/IC50 Or EC50", "setting": "HTR1A", "result": 15, "unit": "µM"}]}, {"compound": "CCCCOC(=O)c1ccc(O)cc1", "note": "[Butylparaben]", "values": [{"measurement": "Ki/IC50 Or EC50", "setting": "ADRA1A", "result": 16, "unit": "µM"}, {"measurement": "Ki/IC50 Or EC50", "setting": "SLC6A2", "result": 20, "unit": "µM"}, {"measurement": "concentrations in the blood", "setting": "[2]; dosed at 10 mg/kg oral", "result": "negligible concentrations in the blood"}, {"measurement": "Cmax", "setting": "[2]; in vivo, po, 10 mg/kg", "result": "< 2.6", "unit": "nM"}, {"measurement": "Ki/IC50 Or EC50", "setting": "SLCO2B1; Table 2, SLCO2B1, accurate to ±20%", "result": 39, "unit": "µM"}, {"measurement": "Ki/IC50 Or EC50", "setting": "SCN5A", "result": 33, "unit": "µM"}, {"measurement": "Ki/IC50 Or EC50", "setting": "SLC18A2", "result": 6.6, "unit": "µM"}, {"measurement": "MCP-1 (CCL2) and sPGE2 levels", "setting": "[1]; peripheral blood mononuclear cells and venular endothelial cells", "result": "dose-dependently decreased"}, {"measurement": "Ki/IC50", "setting": "CHRM1; Table 1, predicted target CHRM1", "result": 12, "unit": "µM"}, {"measurement": "IC50", "setting": "TBXA2R", "result": 19, "unit": "µM"}, {"measurement": "Ki/IC50 Or EC50", "setting": "TBXA2R; Table 2, TBXA2R, accurate to ±20%", "result": 19, "unit": "µM"}, {"measurement": "Papp", "setting": "[3]", "result": 8.3, "unit": "×10⁻⁶ cm/s"}, {"measurement": "Ki/IC50 Or EC50", "setting": "SLC6A3", "result": 18, "unit": "µM"}]}, {"compound": "FD&C Red No. 3", "values": [{"measurement": "Ki/IC50", "setting": "PRMT1", "result": 0.46, "unit": "µM"}, {"measurement": "Ki/IC50 Or EC50", "setting": "ACHE", "result": 0.42, "unit": "µM"}, {"measurement": "Ki/IC50 Or EC50", "setting": "PDE3A; Table 2, PDE3A, accurate to ±20%", "result": 0.092, "unit": "µM"}, {"measurement": "IC50", "setting": "PDE3A; Table 4, target PDE3A", "result": 0.092, "unit": "µM"}, {"measurement": "%F", "setting": "[4]", "result": 0.7, "unit": "%"}, {"measurement": "plasma protein binding", "result": 99, "unit": "%"}, {"measurement": "MDCK-LE Papp", "setting": "[5]", "result": "<0.5", "unit": "×10⁻⁶ cm/s"}, {"measurement": "Ki/IC50 Or EC50", "setting": "PDE4D", "result": 0.32, "unit": "µM"}]}]}
